Key:
Conditions in all cases: 72 h
[1] = test system: Caco-2; assay: cell viability relative to DMSO; higher = less toxic
[2] = test system: Calu-3; assay: as above
[3] = test system: HepG2; assay: as above
[4] = test system: U2OS; assay: as above
[5] = test system: Vero E6; assay: as above
[6] = test system: Caco-2; assay: relative viability EC50 (midpoint between 100% and the lowest measured viability); higher = less toxic
[7] = test system: Calu-3; assay: as above
[8] = test system: HepG2; assay: as above
[9] = test system: U2OS; assay: as above
[10] = test system: Vero E6; assay: as above
[11] = test system: Caco-2; assay: drug sensitivity score (DSS) for viability; higher = more toxic; extreme values may be limits of the assay
[12] = test system: Calu-3; assay: as above
[13] = test system: HepG2; assay: as above
[14] = test system: U2OS; assay: as above
[15] = test system: Vero E6; assay: as above

Row | Structure (SMILES) | cell viability ([1]; 1 nM) | cell viability ([1]; 10 nM) | cell viability ([1]; 100 nM) | cell viability ([1]; 1000 nM) | cell viability ([1]; 10000 nM) | cell viability ([2]; 1 nM) | cell viability ([2]; 10 nM) | cell viability ([2]; 100 nM) | cell viability ([2]; 1000 nM) | cell viability ([2]; 10000 nM) | cell viability ([3]; 1 nM) | cell viability ([3]; 10 nM) | cell viability ([3]; 100 nM) | cell viability ([3]; 1000 nM) | cell viability ([3]; 10000 nM) | cell viability ([4]; 1 nM) | cell viability ([4]; 10 nM) | cell viability ([4]; 100 nM) | cell viability ([4]; 1000 nM) | cell viability ([4]; 10000 nM) | cell viability ([5]; 1 nM) | cell viability ([5]; 10 nM) | cell viability ([5]; 100 nM) | cell viability ([5]; 1000 nM) | cell viability ([5]; 10000 nM) | relative viability EC50 [6] | relative viability EC50 [7] | relative viability EC50 [8] | relative viability EC50 [9] | relative viability EC50 [10] | drug sensitivity score [11] | drug sensitivity score [12] | drug sensitivity score [13] | drug sensitivity score [14] | drug sensitivity score [15]
1 | CCc1ccc(OCc2ccccc2C(=O)Nc2ccc3nc(C)cc(N)c3c2)cc1 [JTC-801] | 97.8% | 94.5% | 90.4% | 91.9% | 0.6% | 97.7% | 102% | 100% | 100% | 0.2% | 114% | 95.6% | 102% | 89% | -0.1% | 96% | 99.2% | 96.6% | 97.8% | -0.1% | 101% | 99.7% | 102% | 94.1% | -0.1% | 2.49 µM | 3.18 µM | 2.25 µM | 3 µM | 2.69 µM | 6.8 | 5.6 | 7.4 | 5.9 | 6.4
2 | O=C(OC(C(F)(F)F)C(F)(F)F)N1CCC(C(O)(c2ccc3c(c2)OCO3)c2ccc3c(c2)OCO3)CC1 [KML29] | 94.6% | 99.6% | 117% | 97% | 106% | 109% | 105% | 98% | 108% | 92.6% | 96.7% | 96.1% | 94.1% | 106% | 98.8% | 103% | 99.8% | 101% | 95.5% | 95.5% | 94% | 96.2% | 97.8% | 98.3% | 91.7% | > 10 µM | > 10 µM | > 10 µM | > 10 µM | > 10 µM | 0 | 0 | 0 | 0 | 0
3 | O=C(O)[C@@H]1C[C@@H](O)CN1 [L-hydroxyproline] | 80.5% | 92.4% | 100% | 96.1% | 95.8% | 95% | 94.4% | 93.5% | 96.9% | 106% | 101% | 112% | 99.7% | 108% | 90.8% | 95.9% | 102% | 100% | 95.2% | 102% | 104% | 114% | 99.5% | 105% | 94.4% | > 10 µM | > 10 µM | > 10 µM | > 10 µM | > 10 µM | 0 | 0 | 0 | 0 | 0
4 | Cc1sc(C)c(C(=O)NC2(c3ccc(C(=O)O)cc3)CC2)c1Cc1ccc(C(F)(F)F)cc1 [MK-2894] | 94.8% | 95.7% | 89% | 101% | 101% | 99.3% | 107% | 103% | 101% | 109% | 104% | 99.9% | 111% | 96.4% | 96.4% | 93.1% | 99.8% | 100% | 102% | 106% | 93.7% | 92.9% | 96.5% | 93.6% | 85.9% | > 10 µM | > 10 µM | > 10 µM | > 10 µM | > 10 µM | 0 | 0 | 0 | 0 | 0
5 | COc1ccccc1C(=O)Nc1cccc(NC(=O)c2cccc(C)c2)c1 [ML365] | 97.8% | 101% | 97.4% | 92.8% | 86% | 99% | 98.4% | 96.2% | 98.4% | 94.3% | 113% | 98.7% | 91.6% | 116% | 85.8% | 107% | 102% | 103% | 98.5% | 99% | 102% | 100% | 101% | 98.2% | 95% | > 10 µM | > 10 µM | > 10 µM | > 10 µM | > 10 µM | 0.3 | 0 | 0 | 0 | 0
6 | Cc1cc(C)c(NC(=O)C2CC3CCC2C3)c(C)c1 (stereo not given) [ML-213] | 107% | 82.4% | 93.7% | 98.4% | 99.8% | 105% | 96.5% | 92% | 106% | 95.3% | 103% | 104% | 99.9% | 104% | 101% | 105% | 100% | 99.8% | 103% | 104% | 93.3% | 98.4% | 96.3% | 90.3% | 100% | > 10 µM | > 10 µM | > 10 µM | > 10 µM | > 10 µM | 0 | 0 | 0 | 0 | 0
7 | S=C=Nc1cccc(NC(=S)NCCCCNC(=S)Nc2cccc(N=C=S)c2)c1 [MRS-2578] | 100% | 91.2% | 99.7% | 98.4% | 101% | 90.7% | 93.6% | 109% | 90.2% | 107% | 107% | 104% | 110% | 97.7% | 103% | 95.9% | 95.8% | 99.5% | 97.2% | 104% | 98.3% | 98.8% | 94.2% | 99.5% | 98.7% | > 10 µM | > 10 µM | > 10 µM | > 10 µM | > 10 µM | 0 | 0 | 0 | 0 | 0
8 | COC(=O)CN1CN(c2ccccc2)C2(CCN(Cc3cccc4ccccc34)CC2)C1=O [NNC-63-0532] | 102% | 96.3% | 95% | 99.7% | 96.9% | 98.2% | 106% | 97.7% | 114% | 102% | 93.5% | 104% | 99.6% | 95% | 99.8% | 100% | 96.1% | 94.9% | 102% | 98.7% | 90.2% | 97.3% | 96.5% | 90.7% | 103% | > 10 µM | > 10 µM | > 10 µM | > 10 µM | > 10 µM | 0 | 0 | 0 | 0 | 0
9 | C[C@]12CC[C@H]3[C@@H](CCC4=CC(=O)CC[C@@H]43)[C@@H]1CC[C@@H]2O [Nandrolone] | 92% | 91.3% | 98.7% | 103% | 95% | 95.7% | 102% | 102% | 104% | 99.4% | 102% | 101% | 96.9% | 108% | 113% | 98.7% | 96.1% | 98.5% | 96.5% | 96.7% | 91.6% | 104% | 89.9% | 96.2% | 103% | > 10 µM | > 10 µM | > 10 µM | > 10 µM | > 10 µM | 0 | 0 | 0 | 0 | 0
10 | CO/N=C1/C[C@@H](C(=O)NC[C@@H](O)c2ccccc2)N(C(=O)c2ccc(-c3ccccc3C)cc2)C1 [OT-R-antagonist-1] | 89% | 99% | 99.1% | 86.6% | 98.3% | 96.2% | 106% | 106% | 110% | 99.4% | 102% | 97.6% | 99.4% | 97.7% | 98.5% | 96.9% | 99.8% | 94.5% | 99.1% | 100% | 97% | 90.8% | 95.2% | 84.8% | 103% | > 10 µM | > 10 µM | > 10 µM | > 10 µM | > 10 µM | 0 | 0 | 0 | 0 | 0
11 | C[C@]12COC(=O)C[C@@H]1CC[C@@H]1[C@@H]2CC[C@@]2(C)[C@H]1CC[C@]2(C)O [Oxandrolone] | 106% | 101% | 100% | 99.4% | 106% | 98.3% | 98.4% | 96.8% | 103% | 110% | 102% | 94.9% | 104% | 99.4% | 90.8% | 101% | 99.4% | 99.7% | 102% | 104% | 104% | 98% | 98.4% | 104% | 98.2% | > 10 µM | > 10 µM | > 10 µM | > 10 µM | > 10 µM | 0 | 0 | 0 | 0 | 0
12 | O=C(/C=C/N1C[C@H]2C[C@@H]1CN2c1ccccn1)c1ccccc1O [PFI-3] | 92% | 94.5% | 88.5% | 98.1% | 106% | 101% | 115% | 98.1% | 96.1% | 107% | 97.3% | 99.8% | 110% | 99.5% | 96.2% | 92.6% | 99.7% | 96.1% | 99.7% | 101% | 99.3% | 90.4% | 99.6% | 93.8% | 104% | > 10 µM | > 10 µM | > 10 µM | > 10 µM | > 10 µM | 0 | 0 | 0 | 0 | 0
13 | Cc1ccc([N+](=O)[O-])cc1S(=O)(=O)N(C)/N=C/c1cnc2ccc(Br)cn12 [PIK-75] | 98.8% | 90.3% | 57.9% | 28.4% | 33.3% | 102% | 103% | 52.6% | 35.6% | 46.7% | 97.9% | 84.7% | 26% | 11.1% | 10.6% | 98.6% | 96.6% | 53.8% | 4.2% | 0.8% | 105% | 101% | 69.7% | 0.7% | 5.3% | 0.0669 µM | 0.0668 µM | 0.0317 µM | 0.109 µM | 0.139 µM | 18.3 | 17.4 | 26.8 | 23 | 22.3
14 | O=C1C(c2ccccn2)=[N+]([O-])c2ccccc21 [PIT] | 104% | 95.1% | 92.7% | 92.1% | 109% | 95.2% | 106% | 94.7% | 93.9% | 102% | 99.8% | 103% | 96% | 91.8% | 97.9% | 97.6% | 100% | 99% | 95.3% | 101% | 102% | 102% | 97% | 97.6% | 97.5% | > 10 µM | > 10 µM | > 10 µM | > 10 µM | > 10 µM | 0 | 0 | 0 | 0 | 0
